Laboratory results from ChEMBL document CHEMBL1154895, “Cytotoxic neoclerodane diterpenoids from Scutellaria barbata” (J Nat Prod, 2010).

System: SK-BR-3
Assay: Cytotoxicity against human SK-BR-3 cells after 48 hrs by MTT assay
Assay type: functional, cell-based
Details: SK-BR-3, 48 h

For CC(=O)O[C@@H](CC1=C(O)C(=O)OC1)[C@]1(C)[C@H]2CCC=C(C)[C@]2(C)[C@@H](OC(=O)c2ccccc2)[C@H](OC(=O)c2ccccc2)[C@]1(C)O (mixture of isomers) [SCUTEBATA A], the IC50 was 15.2 µM.
